7 compounds from US10030047B2 (Hoffmann-La Roche Inc., priority 2015, dated 2018) can be followed below.

A word on the MIC: it is the lowest concentration found to suppress growth.

SMILES strings stand for the structures. In brackets after ≈: the same amount, converted by molar mass.

In the assay the test system is A. baumannii strain ATCC19606. The assay is described as follows: Minimum inhibitory concentration (MIC) determination, microbroth dilution (CLSI). The assay is classed as cell-based. Conditions: Acinetobacter baumannii; A. baumannii ATCC19606; CAMHB; read after 20 hours; >=80% growth inhibition; read-out: ATCC19606 MIC. The method in brief:
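After 20 h at 35±2 °C, MIC taken visually and by OD 600 nm as the lowest concentration giving ≥80% growth inhibition. Bacteria (~5×10^5 CFU/ml) were tested per CLSI microbroth dilution against twofold serial compound dilutions in cation-adjusted Mueller Hinton broth.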
For orientation: Dilution methods test growth across graded concentrations, often in twofold steps.
Turning to `CN1C(=O)[C@H](CCCCN)NC(=O)[C@H](CCCN)NCc2cccnc2Sc2c(Cl)ccc(-c3ccc(S(N)(=O)=O)cc3)c2CNC(=O)[C@@H]1Cc1c[nH]c2ccccc12` [Example 224, 4-[(11S,14S,17S)-14-(4-Amino-butyl)-11-(3-amino-propyl)-25-chloro-17-(1H-indol-3-ylmethyl)-16-methyl-12,15,18-trioxo-2-thia-4,10,13,16,19-pentaaza-tricyclo[19.4.0.0*3,8*]pentacosa-1(21),3,5,7,22,24-hexaen-22-yl]-benzenesulfonamide], the MIC was 0.12 µg/mL (≈ 0.139 µM).

As for `CN1C(=O)[C@H](CCCCN)NC(=O)[C@H](CCCN)NCc2cccnc2Sc2c(Cl)ccc(-c3ccc(S(C)(=O)=O)cc3)c2CNC(=O)[C@@H]1Cc1c[nH]c2ccccc12` [Example 225, (11S,14S,17S)-14-(4-Amino-butyl)-11-(3-amino-propyl)-25-chloro-17-(1H-indol-3-ylmethyl)-22-(4-methanesulfonyl-phenyl)-16-methyl-2-thia-4,10,13,16,19-pentaaza-tricyclo[19.4.0.0*3,8*]pentacosa-1(21),3,5,7,22,24-hexaene-12,15,18-trione], the MIC stood at 0.12 µg/mL (≈ 0.14 µM).

As for `CN1C(=O)[C@H](CCCCN)NC(=O)[C@H](CCCN)NCc2cccnc2Sc2c(Cl)cc(-n3ccnc3)cc2CNC(=O)[C@@H]1Cc1c[nH]c2ccccc12` [Example 227, (11S,14S,17S)-14-(4-Amino-butyl)-11-(3-amino-propyl)-25-chloro-23-imidazol-1-yl-17-(1H-indol-3-ylmethyl)-16-methyl-2-thia-4,10,13,16,19-pentaaza-tricyclo[19.4.0.0*3,8*]pentacosa-1(21),3,5,7,22,24-hexaene-12,15,18-trione], the minimum inhibitory concentration (MIC) worked out at 4 µg/mL (≈ 5.19 µM).

For the compound `CN1C(=O)[C@H](CCCCN)NC(=O)[C@H](CCCN)NCc2cccnc2Sc2c(Cl)ccc(-c3ccc(N)nc3)c2CNC(=O)[C@@H]1Cc1c[nH]c2ccccc12` [Example 228, (11S,14S,17S)-14-(4-Amino-butyl)-11-(3-amino-propyl)-22-(6-amino-pyridin-3-yl)-25-chloro-17-(1H-indol-3-ylmethyl)-16-methyl-2-thia-4,10,13,16,19-pentaaza-tricyclo[19.4.0.0*3,8*]pentacosa-1(21),3,5,7,22,24-hexaene-12,15,18-trione], the MIC stood at 0.12 µg/mL (≈ 0.15 µM).

For the compound `CN1C(=O)[C@H](CCCCN)NC(=O)[C@H](CCCN)NCc2cccnc2Sc2c(Cl)cc(-c3ccnc(C#N)c3)cc2CNC(=O)[C@@H]1Cc1c[nH]c2ccccc12` [Example 229, 4-[(11S,14S,17S)-14-(4-Amino-butyl)-11-(3-amino-propyl)-25-chloro-17-(1H-indol-3-ylmethyl)-16-methyl-12,15,18-trioxo-2-thia-4,10,13,16,19-pentaaza-tricyclo[19.4.0.0*3,8*]pentacosa-1(21),3,5,7,22,24-hexaen-23-yl]-pyridine-2-carbonitrile], the MIC turned out to be 1 µg/mL (≈ 1.24 µM).

In the case of `CN1C(=O)[C@H](CCCCN)NC(=O)[C@H](CCCN)NCc2cccnc2Sc2c(Cl)ccc(-c3ccc(O)nc3)c2CNC(=O)[C@@H]1Cc1c[nH]c2ccccc12` [Example 230, (11S,14S,17S)-14-(4-Amino-butyl)-11-(3-amino-propyl)-25-chloro-22-(6-hydroxy-pyridin-3-yl)-17-(1H-indol-3-ylmethyl)-16-methyl-2-thia-4,10,13,16,19-pentaaza-tricyclo[19.4.0.0*3,8*]pentacosa-1(21),3,5,7,22,24-hexaene-12,15,18-trione], the MIC worked out at 0.12 µg/mL (≈ 0.15 µM).

Take `CN1C(=O)[C@H](CCCCN)NC(=O)[C@H](CCC(N)=O)NCc2cccnc2Sc2c(Cl)ccc(-c3ccnc(F)c3)c2CNC(=O)[C@@H]1Cc1c[nH]c2ccccc12` [Example 231, 3-[(11S,14S,17S)-14-(4-Amino-butyl)-25-chloro-22-(2-fluoro-pyridin-4-yl)-17-(1H-indol-3-ylmethyl)-16-methyl-12,15,18-trioxo-2-thia-4,10,13,16,19-pentaaza-tricyclo[19.4.0.0*3,8*]pentacosa-1(21),3,5,7,22,24-hexaen-11-yl]-propionamide]: the MIC came out at 1 µg/mL (≈ 1.23 µM).
